Data from ChEMBL document CHEMBL1136984, “Orally active C-6 heteroaryl- and heterocyclyl-substituted imidazo[1,2-a]pyridine acid pump antagonists (APAs)” (Bioorg Med Chem Lett, 2009).
One block for each compound: values may come before it.

Experiments:
[1] = buffer, pH 7.4
in vivo [2] = conditions: rat, po, 1 mg/kg
in vivo [3] = conditions: rat, iv, 1 mg/kg
[4] = Blood clearance in dog at 1 mg/kg/hr, iv dosed in saline containing hydroxylpropyl-beta-cyclodextrin and DMSO; type: ADME, organism-based, Canis lupus familiaris; parameters: route intravenous
in vivo [5] = conditions: rat, iv, 1 mg/kg; remark: listed apart in the source
in vivo [6] = conditions: dog, iv, 1 mg/kg
in vivo [7] = conditions: dog, iv, 1 mg/kg; remark: listed apart in the source
in vivo [8] = conditions: dog, po, 1 mg/kg
in vivo [9] = conditions: rat, blood, iv, 1 mg/kg

SMILES: Cc1nc2c(NCc3cccnc3)cc(-n3ccccc3=O)cn2c1C
- CHI [1]: 0.73

SMILES: Cc1nc2c(NCc3ccc(F)cc3Cl)cc(-n3ccccc3=O)cn2c1C
- CHI [1]: 2.26

SMILES: Cc1nc2c(NCc3ccc(F)cc3Cl)cc(-n3cncn3)cn2c1C
- CHI [1]: 2.61

SMILES: Cc1nc2c3c(c(-n4ccccc4=O)cn2c1C)CC[C@@H](c1ccccc1)N3
- CHI [1]: 3.35

SMILES: Cc1cccc(C)c1CNc1cc(C(=O)NCCO)cn2c(C)c(C)nc12 [LINAPRAZAN]
- CHI [1]: 2.14

SMILES: Cc1cccc(C)c1CNc1cc(-n2cncn2)cn2c(C)c(C)nc12
- bioavailability (in vivo [2]): 21%
- Vd (in vivo [3]): 3.5 L/kg
- clearance [4]: 50 mL/min/kg
- half-life (in vivo [6]): 2.3 h
- CHI [1]: 3.07
- Vd (in vivo [7]): 6.6 L/kg
- bioavailability (in vivo [8]): 12%
- clearance (in vivo [9]): 83 mL/min/kg

SMILES: CCc1cccc(C)c1CNc1cc(C(N)=O)cn2c(C)c(C)nc12
- CHI [1]: 2.52

SMILES: Cc1cccc(C)c1CNc1cc(N2CCCCC2=O)cn2c(C)c(C)nc12
- CHI [1]: 2.79

Second part, the compound after the results:

- CHI [1]: 1.58
SMILES: Cc1cccc(C)c1CNc1cc(-n2ccc(=O)cc2)cn2c(C)c(C)nc12

- CHI [1]: 2.17
SMILES: Cc1cccc(CNc2cc(-n3ccccc3=O)cn3c(C)c(C)nc23)c1

- CHI [1]: 1.93
SMILES: COc1ccccc1CNc1cc(-n2ccccc2=O)cn2c(C)c(C)nc12

- CHI [1]: 2.33
SMILES: Cc1cccc(C)c1CNc1cc(-n2cnccc2=O)cn2c(C)c(C)nc12

- bioavailability (in vivo [2]): 28%
- Vd (in vivo [3]): 1 L/kg
- clearance [4]: 10 mL/min/kg
- half-life (in vivo [5]): 5.3 h
- half-life (in vivo [6]): 1.6 h
- Vd (in vivo [7]): 1.1 L/kg
- bioavailability (in vivo [8]): 36%
- clearance (in vivo [9]): 37 mL/min/kg
SMILES: Cc1cccc(C)c1CNc1cc(-n2ccccc2=O)cn2c(CO)c(C)nc12

- CHI [1]: 2.12
SMILES: Cc1cccc(C)c1COc1cc(-n2ccccc2=O)cn2c(C)c(C)nc12

- bioavailability (in vivo [2]): 18%
- Vd (in vivo [3]): 1.8 L/kg
- half-life (in vivo [5]): 0.5 h
- clearance (in vivo [9]): 58 mL/min/kg
SMILES: Cc1cn2cc(-n3ccccc3=O)cc(NCc3c(C)cccc3C)c2n1

- CHI [1]: 1.71
SMILES: Cc1cccc(C)c1CNc1cc(-n2cc(C(N)=O)ccc2=O)cn2c(C)c(C)nc12
